Test system: acute hippocampal slices
Test: Low Mg2+-induced injury of acute hippocampal slices, LDH release
Type: cell-based
Conditions: aCSF without Mg2+ plus 100 μM amiloride for 2 hr, medium collected 6 hr after incubation
Protocol: To determine whether ASIC blockade affects seizure-induced neuronal injury, we tested the effect of ASIC blockade on low Mg^2+-induced injury of acute hippocampal slices. 400 μm-thick coronal slices were cut and placed on a Millipore membrane in 6-well plates (2 slices in each well). Slices were randomly divided into three groups treated with the following different solutions (for 2 hr): oxygenated aCSF with normal Mg^2+; oxygenated aCSF without Mg^2+; oxygenated aCSF without Mg^2+ plus 100 μM amiloride. 100 μL medium was collected from each slice 6 hr following the incubation for the measurement of lactate dehydrogenase (LDH). The LDH value was then normalized to the maximal releasable LDH to give % of cell death. With aCSF containing normal Mg^2+, 6.2±0.9% of maximal LDH release was recorded. In the absence of Mg^2+, this value was increased to 13.0±2.2%. Addition of aniloride decreased relative LDH release to 6.0±0.4% (n=3).
LDH Assay. Lactate dehydrogenase (LDH) is a stable cytoplasmic enzyme present in all cells. […] LDH assays were performed using the Cytotoxicity Detection Kit (Cat#1644793, Roche Molecular Biochemicals) and a spectrophotometric mutiwell plate reader (SPECTRAmax, Molecular Devices). […] Absorbance at OD490 nm was measured 30 min after the reaction. Absorbance at a reference wavelength (OD620 nm) was subtracted from the measurement.

NC(N)=NC(=O)c1nc(Cl)c(N)nc1N [amiloride, 3,5-diamino-6-chloro-N(diaminomethylidene)pyrazine-2-carboxamide]
relative LDH release (% of maximal releasable LDH, cell death): 6.0±0.4%
